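Results reflect a 48-hour exposure of cells in 96-well plates to compound at five concentrations. The concentration for 50% growth inhibition is given as GI50.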 Activity calls are given as the source filed them. Rule as the data show it: active = GI50 up to about 1.1 µM and inactive = higher.
Key:
Test in all cases: NCI-60 cell line screen, 48 h
NCI-H23 = tested on: NCI-H23
HT-29 = tested on: HT-29
SK-MEL-2 = tested on: SK-MEL-2
OVCAR-5 = tested on: OVCAR-5
DLD-1 = tested on: DLD-1
COLO 205 = tested on: COLO 205
OVCAR-3 = tested on: OVCAR-3
HCT-15 = tested on: HCT-15
CCRF-CEM = tested on: CCRF-CEM
SF-295 = tested on: SF-295
OVCAR-8 = tested on: OVCAR-8
RPMI-8226 = tested on: RPMI-8226
NCI/ADR-RES = tested on: NCI/ADR-RES
SN12C = tested on: SN12C
UACC-62 = tested on: UACC-62
NCI-H522 = tested on: NCI-H522
Malme-3M = tested on: Malme-3M
NCI-H226 = tested on: NCI-H226
SK-OV-3 = tested on: SK-OV-3
CAKI-1 = tested on: CAKI-1
IGROV-1 = tested on: IGROV-1
KM-20L2 = tested on: KM-20L2
MCF7 = tested on: MCF7
SNB-78 = tested on: SNB-78
SF-539 = tested on: SF-539
KM12 = tested on: KM12
SNB-19 = tested on: SNB-19
HOP-92 = tested on: HOP-92
SK-MEL-5 = tested on: SK-MEL-5
SF-268 = tested on: SF-268
U-251 = tested on: U-251
DMS-114 = tested on: DMS-114
HOP-18 = tested on: HOP-18
DMS-273 = tested on: DMS-273
HOP-62 = tested on: HOP-62
K562 = tested on: K562
HL-60 = tested on: HL-60
RXF 393 = tested on: RXF 393
EKVX = tested on: EKVX
MOLT-4 = tested on: MOLT-4
LOX IMVI = tested on: LOX IMVI
NCI-H460 = tested on: NCI-H460
A498 = tested on: A498
UO-31 = tested on: UO-31
A549 = tested on: A549
OVCAR-4 = tested on: OVCAR-4
HCC 2998 = tested on: HCC 2998
SK-MEL-28 = tested on: SK-MEL-28
SW-620 = tested on: SW-620
M19-MEL = tested on: M19-MEL
UACC-257 = tested on: UACC-257
XF498 = tested on: XF498
SNB-75 = tested on: SNB-75
HCT-116 = tested on: HCT-116
ACHN = tested on: ACHN
TK-10 = tested on: TK-10
786-0 = tested on: 786-0

`CC12CCC(C(=O)N3CC=CCC3)(OC1=O)C2(C)C` (centres undefined) was tested, and the GI50 (NCI-H23) was > 100 µM (inactive), the GI50 (HT-29) was > 100 µM (inactive) and the GI50 (SK-MEL-2) was > 100 µM (inactive). For the same compound, the GI50 (OVCAR-5) was > 100 µM (inactive), the GI50 (DLD-1) was > 100 µM (inactive) and the GI50 (COLO 205) was > 100 µM (inactive). The GI50 (OVCAR-3) was > 100 µM (inactive), the GI50 (HCT-15) was greater than 100 µM and the GI50 (CCRF-CEM) was > 82.8 µM (inactive). The GI50 (SF-295) was > 100 µM (inactive), the GI50 (OVCAR-8) was > 100 µM (inactive) and the GI50 (RPMI-8226) was > 100 µM (inactive). For the same compound, the GI50 (NCI/ADR-RES) was > 100 µM (inactive), the GI50 (SN12C) was > 100 µM (inactive) and the GI50 (UACC-62) was > 100 µM (inactive). For the same compound, the GI50 (NCI-H522) was > 100 µM (inactive), the GI50 (Malme-3M) was > 100 µM (inactive) and the GI50 (NCI-H226) was > 100 µM (inactive). For the same compound, the GI50 (SK-OV-3) was > 100 µM (inactive), the GI50 (CAKI-1) was > 100 µM (inactive) and the GI50 (IGROV-1) was > 100 µM (inactive). For the same compound, the GI50 (KM-20L2) was > 100 µM (inactive), the GI50 (MCF7) was > 100 µM (inactive) and the GI50 (SNB-78) was > 100 µM (inactive). For the same compound, the GI50 (SF-539) was > 100 µM (inactive), the GI50 (KM12) was > 100 µM (inactive) and the GI50 (SNB-19) was > 100 µM (inactive). The GI50 (HOP-92) was > 100 µM (inactive), the GI50 (SK-MEL-5) was > 100 µM (inactive) and the GI50 (SF-268) was > 100 µM (inactive). For the same compound, the GI50 (U-251) was > 100 µM (inactive), the GI50 (DMS-114) was > 100 µM (inactive) and the GI50 (HOP-18) was > 100 µM (inactive). The GI50 (DMS-273) was > 100 µM (inactive), the GI50 (HOP-62) was > 100 µM (inactive) and the GI50 (K562) was > 100 µM (inactive). The GI50 (HL-60) was > 100 µM (inactive), the GI50 (RXF 393) was > 100 µM (inactive) and the GI50 (EKVX) was > 100 µM (inactive). For the same compound, the GI50 (MOLT-4) was > 100 µM (inactive), the GI50 (LOX IMVI) was > 100 µM (inactive) and the GI50 (NCI-H460) was > 100 µM (inactive). The GI50 (A498) was > 100 µM (inactive), the GI50 (UO-31) was > 100 µM (inactive) and the GI50 (A549) was > 100 µM (inactive). For the same compound, the GI50 (OVCAR-4) was > 100 µM (inactive), the GI50 (HCC 2998) was > 69 µM (inactive) and the GI50 (SK-MEL-28) was > 100 µM (inactive). The GI50 (SW-620) was > 100 µM (inactive), the GI50 (M19-MEL) was > 100 µM (inactive) and the GI50 (UACC-257) was > 100 µM (inactive). For the same compound, the GI50 (XF498) was > 100 µM (inactive), the GI50 (SNB-75) was > 100 µM (inactive) and the GI50 (HCT-116) was > 100 µM (inactive).
With `O=C(c1ccc(Cl)cc1)C1OC12C(=O)Nc1c(Cl)cc(Cl)cc12` (centres undefined) the GI50 (NCI-H23) was 30.1 µM (inactive), the GI50 (HT-29) was 41.2 µM (inactive) and the GI50 (SK-MEL-2) was 67.5 µM (inactive). For the same compound, the GI50 (OVCAR-5) was > 100 µM (inactive), the GI50 (DLD-1) was 87.3 µM (inactive) and the GI50 (OVCAR-3) was 21.2 µM (inactive). For the same compound, the GI50 (HCT-15) was 42.1 µM, the GI50 (CCRF-CEM) was 22.4 µM (inactive) and the GI50 (SF-295) was 46.3 µM (inactive). The GI50 (OVCAR-8) was 23 µM (inactive), the GI50 (RPMI-8226) was 14.9 µM (inactive) and the GI50 (ACHN) was 92.9 µM (inactive). For the same compound, the GI50 (SN12C) was 54 µM (inactive), the GI50 (TK-10) was 51.2 µM (inactive) and the GI50 (786-0) was 49 µM (inactive). The GI50 (Malme-3M) was 71.9 µM (inactive), the GI50 (NCI-H226) was 28.3 µM (inactive) and the GI50 (KM-20L2) was 67.5 µM (inactive). For the same compound, the GI50 (SF-539) was 75 µM (inactive), the GI50 (KM12) was 48.6 µM (inactive) and the GI50 (SNB-19) was 54.3 µM (inactive). The GI50 (SK-MEL-5) was 37.5 µM (inactive), the GI50 (SF-268) was 51.9 µM (inactive) and the GI50 (U-251) was 76.7 µM (inactive). The GI50 (HOP-18) was 36.2 µM (inactive), the GI50 (DMS-273) was 65.5 µM (inactive) and the GI50 (HOP-62) was > 100 µM (inactive). For the same compound, the GI50 (K562) was 22.3 µM (inactive), the GI50 (EKVX) was 19.8 µM (inactive) and the GI50 (LOX IMVI) was 39.4 µM (inactive). The GI50 (NCI-H460) was 50.8 µM (inactive), the GI50 (A498) was > 100 µM (inactive) and the GI50 (UO-31) was 63.7 µM (inactive). For the same compound, the GI50 (A549) was 49.9 µM (inactive), the GI50 (HCC 2998) was > 100 µM (inactive) and the GI50 (SK-MEL-28) was 94 µM (inactive). For the same compound, the GI50 (SW-620) was 40 µM (inactive), the GI50 (UACC-257) was 26.9 µM (inactive) and the GI50 (XF498) was 15.3 µM (inactive). For the same compound, the GI50 (SNB-75) was 25.9 µM (inactive).
